Assay results reported in patent publication US20100216779A1 (GLAXOSMITHKLINE LLC, priority 2007, published 2010).

Experiments:
Type in all cases: cell-based
[1] = test system: COLO205 (colon); assay: Inhibition of cell proliferation, CellTiter-Glo, COLO205; settings: Homo sapiens, COLO 205, 72 h
Procedure, shortened: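 Exponentially growing COLO205 cells in medium with 10% FBS were plated below 2000 cells/well at 37 °C, 5% CO2. Untreated wells served as controls.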

[2] = test system: NCI-H929 (multiple myeloma); assay: Inhibition of cell proliferation, CellTiter-Glo, NCI-H929; settings: Homo sapiens, 72 h
Procedure, shortened: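 Cells were grown in medium with 10% FBS at 37° C, 5% CO2. Cell number was read as CellTiter-Glo luminescence (cellular ATP), with untreated wells as control.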

[3] = molecular target: T1, human IGF-1R (NIH-3T3 cells over expressing human IGF-1R) (Homo sapiens, UniProt P08069); assay: IGF-1R cellular autophosphorylation (DELFIA); settings: IGF-1 stimulated
T1 construct: expressed in transfected cells; host or cells: NIH-3T3 (mouse fibroblasts)
T1 sequence (P08069 31-1367): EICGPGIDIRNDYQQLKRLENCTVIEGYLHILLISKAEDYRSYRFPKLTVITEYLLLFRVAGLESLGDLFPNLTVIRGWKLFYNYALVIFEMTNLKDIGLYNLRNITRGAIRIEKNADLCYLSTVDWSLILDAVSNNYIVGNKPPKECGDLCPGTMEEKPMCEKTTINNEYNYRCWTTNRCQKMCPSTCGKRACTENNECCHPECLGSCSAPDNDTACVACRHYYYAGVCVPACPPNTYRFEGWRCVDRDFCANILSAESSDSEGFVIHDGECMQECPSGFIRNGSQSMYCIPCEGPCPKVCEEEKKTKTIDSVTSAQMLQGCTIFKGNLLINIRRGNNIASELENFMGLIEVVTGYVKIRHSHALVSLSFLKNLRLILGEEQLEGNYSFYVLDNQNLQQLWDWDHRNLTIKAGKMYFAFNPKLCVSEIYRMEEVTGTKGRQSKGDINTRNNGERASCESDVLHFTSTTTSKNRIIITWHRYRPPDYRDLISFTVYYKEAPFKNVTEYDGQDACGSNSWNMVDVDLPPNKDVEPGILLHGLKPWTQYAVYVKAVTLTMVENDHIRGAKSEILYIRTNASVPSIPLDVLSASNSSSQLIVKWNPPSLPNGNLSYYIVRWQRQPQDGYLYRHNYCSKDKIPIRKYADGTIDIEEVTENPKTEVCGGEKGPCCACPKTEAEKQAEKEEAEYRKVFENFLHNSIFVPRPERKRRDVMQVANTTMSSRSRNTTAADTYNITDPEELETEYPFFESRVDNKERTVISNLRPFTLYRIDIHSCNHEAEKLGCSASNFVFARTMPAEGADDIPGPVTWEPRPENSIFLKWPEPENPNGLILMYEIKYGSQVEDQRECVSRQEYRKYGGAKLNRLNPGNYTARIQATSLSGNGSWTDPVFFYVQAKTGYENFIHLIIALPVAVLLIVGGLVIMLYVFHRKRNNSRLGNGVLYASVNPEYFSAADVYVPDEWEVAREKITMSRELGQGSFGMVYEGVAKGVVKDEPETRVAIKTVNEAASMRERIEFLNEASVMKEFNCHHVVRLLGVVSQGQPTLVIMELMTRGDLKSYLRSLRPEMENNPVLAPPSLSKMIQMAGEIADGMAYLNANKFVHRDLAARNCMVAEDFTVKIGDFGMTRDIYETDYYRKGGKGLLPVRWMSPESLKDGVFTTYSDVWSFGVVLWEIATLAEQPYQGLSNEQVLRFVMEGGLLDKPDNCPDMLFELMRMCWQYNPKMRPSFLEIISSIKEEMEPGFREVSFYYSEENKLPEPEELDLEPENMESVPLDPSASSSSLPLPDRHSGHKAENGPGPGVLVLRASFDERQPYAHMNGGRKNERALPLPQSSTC
Procedure, shortened: (§1)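 Receptor-overexpressing NIH-3T3, 10% FBS, 37 °C; cpd 30 uM–1.5 nM × 2 h; stim IGF-1 30 ng/mL (IGF-1R) or insulin 3 ug/mL (IR), 15 min; lysate DELFIA, Eu anti-pTyr; % of stimulated signal.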

[4] = molecular target: T2, IR (NIH-3T3 cells over expressing human IGF-1R or IR) (Homo sapiens, UniProt P06213); assay: IR cellular autophosphorylation (DELFIA); settings: NIH-3T3 cells over expressing IR, insulin stimulated
T2 construct: expressed in transfected cells; host or cells: NIH-3T3 (mouse fibroblasts)
T2 sequence (P06213 28-1382): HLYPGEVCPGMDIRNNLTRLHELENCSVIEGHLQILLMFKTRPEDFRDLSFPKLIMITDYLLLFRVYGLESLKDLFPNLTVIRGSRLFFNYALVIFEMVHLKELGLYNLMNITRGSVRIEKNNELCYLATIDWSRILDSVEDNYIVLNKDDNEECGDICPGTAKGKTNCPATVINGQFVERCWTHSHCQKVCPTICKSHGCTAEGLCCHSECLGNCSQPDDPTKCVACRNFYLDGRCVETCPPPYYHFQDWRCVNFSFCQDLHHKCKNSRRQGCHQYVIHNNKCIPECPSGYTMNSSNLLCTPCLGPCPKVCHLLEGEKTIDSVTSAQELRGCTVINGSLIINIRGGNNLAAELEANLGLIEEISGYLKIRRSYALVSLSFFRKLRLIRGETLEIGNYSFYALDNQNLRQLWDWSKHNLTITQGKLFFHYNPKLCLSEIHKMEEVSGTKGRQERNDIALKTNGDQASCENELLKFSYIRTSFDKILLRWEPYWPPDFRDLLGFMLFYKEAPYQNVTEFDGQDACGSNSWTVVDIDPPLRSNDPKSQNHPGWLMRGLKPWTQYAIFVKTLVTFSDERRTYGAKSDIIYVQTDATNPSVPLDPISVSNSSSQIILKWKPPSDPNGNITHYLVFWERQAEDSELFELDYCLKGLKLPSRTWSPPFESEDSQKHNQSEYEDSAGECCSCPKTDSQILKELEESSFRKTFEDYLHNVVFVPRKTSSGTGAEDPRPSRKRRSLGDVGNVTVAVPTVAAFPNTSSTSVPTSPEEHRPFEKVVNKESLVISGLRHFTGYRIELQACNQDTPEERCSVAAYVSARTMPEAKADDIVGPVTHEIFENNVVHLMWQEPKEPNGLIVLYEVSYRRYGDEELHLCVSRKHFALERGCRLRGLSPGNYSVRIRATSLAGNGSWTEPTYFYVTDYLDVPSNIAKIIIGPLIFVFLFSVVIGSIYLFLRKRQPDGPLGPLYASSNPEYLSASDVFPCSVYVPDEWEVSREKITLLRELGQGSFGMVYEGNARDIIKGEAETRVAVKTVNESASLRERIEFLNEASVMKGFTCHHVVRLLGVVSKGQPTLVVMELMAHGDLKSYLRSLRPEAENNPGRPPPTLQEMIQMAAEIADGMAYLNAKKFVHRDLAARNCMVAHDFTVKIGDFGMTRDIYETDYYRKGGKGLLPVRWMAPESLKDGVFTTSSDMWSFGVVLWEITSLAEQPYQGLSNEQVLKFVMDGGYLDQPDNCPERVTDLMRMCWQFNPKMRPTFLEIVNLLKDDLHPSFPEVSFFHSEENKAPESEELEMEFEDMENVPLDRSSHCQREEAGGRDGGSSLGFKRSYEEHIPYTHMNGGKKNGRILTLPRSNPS
Procedure, shortened: as §1

Row | SMILES | IC50 [1] [nM] | IC50 [2] [nM] | IC50 [3] [nM] | IC50 [4] [nM]
1 | COc1c(Nc2nccc(-c3c(-c4cccc(C(=O)Nc5c(F)cccc5F)c4)nc4ccccn34)n2)ccc(N2CCC(N3CCCCC3)CC2)c1C [Example 54, 3-[3-(2-{[4-(1,4′-bipiperidin-1′-yl)-3-methyl-2-(methyloxy)phenyl]amino}-4-pyrimidinyl)imidazo[1,2-a]pyridin-2-yl]-N-(2,6-difluorophenyl)benzamide] | > 1000 | > 1000 | > 500 | > 500
2 | COCCN1CCN(c2cc(OC)c(Nc3nccc(-c4c(-c5ccc(OC)c(C(=O)Nc6c(F)cccc6F)c5)nc5ccccn45)n3)cc2C)CC1 [Example 242, N-(2,6-difluorophenyl)-5-(3-{2-[(5-methyl-2-(methyloxy)-4-{4-[2-(methyloxy)ethyl]-1-piperazinyl}phenyl)amino]-4-pyrimidinyl}imidazo[1,2-a]pyridin-2-yl)-2-(methyloxy)benzamide] | 250 to 1000 | < 250 | < 100 | < 100
3 | CCOc1cc(N2CCC(N3CCN(S(C)(=O)=O)CC3)CC2)ccc1Nc1nccc(-c2c(-c3ccc(OC)c(C(=O)Nc4c(F)cccc4F)c3)nc3ccccn23)n1 [Example 223, N-(2,6-difluorophenyl)-5-(3-{2-[(2-(ethyloxy)-4-{4-[4-(methylsulfonyl)-1-piperazinyl]-1-piperidinyl}phenyl)amino]-4-pyrimidinyl}imidazo[1,2-a]pyridin-2-yl)-2-(methyloxy)benzamide] | < 250 | < 250 | < 100 | < 100
4 | COc1cc(N2CCC(N3CCC(CCS(C)(=O)=O)CC3)CC2)ccc1Nc1nccc(-c2c(-c3ccc(OC)c(C(=O)Nc4c(F)cccc4F)c3)nc3ccccn23)n1 [Example 102, N-(2,6-difluorophenyl)-2-(methyloxy)-5-(3-{2-[(2-(methyloxy)-4-{4-[2-(methylsulfonyl)ethyl]-1,4′-bipiperidin-1′-yl}phenyl)amino]-4-pyrimidinyl}imidazo[1,2-a]pyridin-2-yl)benzamide] | 250 to 1000 | < 250 | < 100 | < 100
5 | CCCN1CCN(c2ccc(Nc3nccc(-c4c(-c5ccc(OC)c(C(=O)Nc6c(F)cccc6F)c5)nc5ccccn45)n3)c(OCC)c2)CC1 [Example 151, N-(2,6-difluorophenyl)-5-[3-(2-{[2-(ethyloxy)-4-[4-propyl-1-piperazinyl)phenyl]amino}-4-pyrimidinyl)imidazo[1,2-a]pyridin-2-yl]-2-(methyloxy)benzamide] | 250 to 1000 | < 250 | < 100 | < 100
6 | CCOc1ccc(-c2nc3ccccn3c2-c2ccnc(Nc3cc(CC)c(N4CCN(CCS(C)(=O)=O)CC4)cc3OC)n2)cc1C(=O)Nc1c(F)cccc1F [Example 235, N-(2,6-difluorophenyl)-5-(3-{2-[(5-ethyl-2-(methyloxy)-4-{4-[2-(methylsulfonyl)ethyl]-1-piperazinyl}phenyl)amino]-4-pyrimidinyl}imidazo[1,2-a]pyridin-2-yl)-2-(ethyloxy)benzamide] | < 250 | < 250 | < 100 | < 100
7 | CCOc1ccc(-c2nc3ccccn3c2-c2ccnc(Nc3ccc(N4CCC(N5CCCCC5)CC4)c(C)c3OC)n2)cc1C(=O)Nc1c(F)cccc1F [Example 56, 5-[3-(2-{[4-(1,4′-bipiperidin-1′-yl)-3-methyl-2-(methyloxy)phenyl]amino}-4-pyrimidinyl)imidazo[1,2-a]pyridin-2-yl]-N-(2,6-difluorophenyl)-2-(ethyloxy)benzamide] | > 1000 | 250 to 1000 | 100 to 500 | 100 to 500
8 | COc1cc(N2CCC(C3CCN(CCF)CC3)CC2)ccc1Nc1nccc(-c2c(-c3cccc(C(=O)Nc4c(F)cccc4F)c3)nc3ccccn23)n1 [Example 95, N-(2,6-difluorophenyl)-3-[3-(2-{[4-[1′-(2-fluoroethyl)-4,4′-bipiperidin-1-yl]-2-(methyloxy)phenyl]amino}-4-pyrimidinyl)imidazo[1,2-a]pyridin-2-yl]benzamide] | > 1000 | 250 to 1000 | < 100 | 100 to 500
9 | COc1cc(N2CCC(N3CCCCC3)CC2)ccc1Nc1nccc(-c2c(-c3ccc(OC)c(C(=O)Nc4c(F)cccc4F)c3)nc3cc(F)ccn23)n1 [Example 198, 5-[3-(2-{[4-(1,4′-bipiperidin-1′-yl)-2-(methyloxy)phenyl]amino}-4-pyrimidinyl)-7-fluoroimidazo[1,2-a]pyridin-2-yl]-N-(2,6-difluorophenyl)-2-(methyloxy)benzamide] | 250 to 1000 | < 250 | < 100 | < 100
10 | COc1cc(N2CCC(N3CCN(CCS(C)(=O)=O)CC3)CC2)ccc1Nc1nccc(-c2c(-c3cccc(C(=O)Nc4c(F)cccc4F)c3)nc3ccccn23)n1 [Example 59, N-(2,6-difluorophenyl)-3-[3-(2-{[2-(methyloxy)-4-(4-{4-[2-(methylsulfonyl)ethyl]-1-piperazinyl}-1-piperidinyl)phenyl]amino}-4-pyrimidinyl)imidazo[1,2-a]pyridin-2-yl]benzamide] | 250 to 1000 | < 250 | < 100 | < 100
11 | COc1cc(N2CCC(N3CCN(CCS(C)(=O)=O)CC3)CC2)ccc1Nc1nccc(-c2c(-c3cccc(C(=O)Nc4c(F)cccc4F)c3)nc3c(F)cccn23)n1 [Example 193, N-(2,6-difluorophenyl)-3-[8-fluoro-3-(2-{[2-(methyloxy)-4-(4-{4-[2-(methylsulfonyl)ethyl]-1-piperazinyl}-1-piperidinyl)phenyl]amino}-4-pyrimidinyl)imidazo[1,2-a]pyridin-2-yl]benzamide] | > 1000 | < 250 | < 100 | 100 to 500
12 | COc1cc(N2CCC(N3CCN4CCOC[C@@H]4C3)CC2)ccc1Nc1nccc(-c2c(-c3cccc(C(=O)Nc4c(F)cccc4F)c3)nc3ccccn23)n1 [Example 87, N-(2,6-difluorophenyl)-3-[3-(2-{[4-{4-[(9aS)-hexahydropyrazino[2,1-c][1,4]oxazin-8(1H)-yl]-1-piperidinyl}-2-(methyloxy)phenyl]amino}-4-pyrimidinyl)imidazo[1,2-a]pyridin-2-yl]benzamide] | 250 to 1000 | < 250 | < 100 | < 100
13 | CCOc1cc(N2CCN(C(C)C)CC2)ccc1Nc1nccc(-c2c(-c3ccc(OC)c(C(=O)Nc4c(F)cccc4F)c3)nc3ccccn23)n1 [Example 172, N-(2,6-difluorophenyl)-5-{3-[2-({2-(ethyloxy)-4-[4-(1-methylethyl)-1-piperazinyl]phenyl}-amino)-4-pyrimidinyl]imidazo[1,2-a]pyridin-2-yl}-2-(methyloxy)benzamide] | 250 to 1000 | < 250 | < 100 | < 100
14 | CCCN1CCC(c2ccc(Nc3nccc(-c4c(-c5cccc(C(=O)Nc6c(F)cccc6F)c5)nc5ccccn45)n3)c(OCC)c2)CC1 [Example 155, N-(2,6-difluorophenyl)-3-[3-(2-{[2-(ethyloxy)-4-(1-propyl-4-piperidinyl)phenyl]amino}-4-pyrimidinyl)imidazo[1,2-a]pyridin-2-yl]benzamide] | 250 to 1000 | < 250 | < 100 | < 100
